Reference: patent US12490743B2, “Method for treatment of crops” (Wobelea PTY LTD, priority 2019, dated 2025)
Several values for one entry are separate records, joined by “and”; a condition that tells them apart may be missing. Equal values may be shown once. One block for each compound: values may come before it.

Tests used:
Erwinia carotovora [1] = assay: Preventative activity: pathogen plugs laid on agar containing product; assay type: cell-based; conditions: Example 5; unadjusted water pH; 0.8%; WOB as liquid formulation; 24 hrs
Description: (§1) The fungal and bacterial pathogens Erwinia carotovora (bacterial) and Botrytis cinerea (fungal) were cultured on to Nutrient Agar (NA) and potato dextrose agar (PDA), respectively and incubated at ambient temperature until sporulating or well grown.
(§2) Multiple plates of PDA were inoculated with B. cinerea and allowed to sporulate. Multiple plates of NA were inoculated with E. carotovora and allowed to grow into a thick lawn.
(§3) Plates of agar containing each product (Na metabisulphite, Na Benzoate, WOB NP1 of Example 3) and (Na sulphite, Na Benzoate, WOB PH1) at concentrations equivalent to 0.8% concentration were made up and poured into sterile disposal Petri dishes. Three replicates for each product and pH (4.0 and 7.0) were used.
(§4) Sterile agar discs covered with bacterial cells or fungal hyphae and spores were cut from respective plates of B. cinerea and E. carotovora. Three discs were each laid culture surface down onto the amended agar surface, incubated at ambient temperatures (14-25° C.) and observed for inhibition zones at 24 hours, 48 hours and 7 days.
(§5) Water was used unmodified and agars were made up of the 6 products using them at the pH resulting after dissolving to 0.8% concertation. Curative and preventative plates were prepared as described for Example 4 except that pHs were as dissolved (tank water not adjusted prior to dissolving/diluting product).
(§6) The curative and preventative experiments were repeated according to the method of Example 5 using the liquid WOB NP1 and WOB PH 1 formulations and the solid actives sodium metabisulphite, sodium benzoate and sodium sulphite.
(§7) The liquid WOB formulations were divided into 3 aliquots; one was used immediately—time zero; one stored at ambient temperate (15-27° C.) for one week and experiments repeated; one kept refrigerated (5° C.) for one week and experiments repeated.

Botrytis cinerea [2] = assay: as above; assay type: cell-based; conditions: Example 5; unadjusted water pH; 0.8%; WOB as liquid formulation; 24 hrs
Description: as §1, §2, §3, §4, §5, §6, §7

[3] = pH of products dissolved in tank water; assay type: physicochemical; conditions: 0.8%; for pH after active added in unamended tank water: tank water pH 6.25
Description: The water used throughout the projects is rainwater held in the dark in a plastic tank with stable pH value of 6.25. Controls were set up by replacing actives with tank water only.
Products were dissolved in tank water before application to the agar plants. Tank water (pH 6.25) was adjusted to the respective pH levels prior to adding the actives to determine the change in pH caused by the actives.
Tank water was adjusted to pH 4.0, 5.5, and 7.0 before adding sodium benzoate, sodium metabisulphite and WOB NP1, each at 0.8%.
Tank water was adjusted to pH 7.0, 7.5 and 8.4 before adding sodium benzoate, sodium sulphite and WOB PH1, each at 0.8%.

Erwinia carotovora [4] = assay: Curative activity: product-soaked discs laid on pathogen lawn on agar; assay type: cell-based; conditions: 0.8%, 24 hrs
Description: as §1, §2
(§8) Plates of PDA and NA were inoculated with fungal spores and bacterial cells, respectively, and allowed to grow into a lawn covering the agar surfaces. Three replicates were used for each product and each pH. Following the results from the preliminary tests, pH 4.0 and 7.0 were selected for all further product pH tests.
(§9) When the lawns were well grown and sporulating in the case of the fungal pathogen, five discs soaked with 200 uL of each product (sodium metabisulphite, sodium benzoate, WOB NP1, sodium sulphite, and WOB PH1) at appropriate pH levels were laid onto the sporulating surface or cell lawn surface for the fungal pathogen and the bacterial pathogen, respectively.
(§10) The plates were incubated at ambient temperature (14-25° C.). Inhibition zones were measured at 24 hours, 48 hours and 7 days.
as §5, §6, §7

Botrytis cinerea [5] = assay: as above; assay type: cell-based; conditions: 0.8%, 24 hrs
Description: as §1, §2, §8, §9, §10, §5, §6, §7

[6] = tank water adjusted to pH 4.0 before product added
[7] = tank water adjusted to pH 5.5 before product added
[8] = tank water adjusted to pH 7.0 before product added
[9] = tank water adjusted to pH 7.5 before product added
[10] = tank water adjusted to pH 8.4 before product added
[11] = Example 5, unadjusted water pH, WOB as liquid formulation

Compound: O=C([O-])c1ccccc1.[Na+] [Na Benzoate, sodium benzoate]
- Preventative activity on the growth of E. carotovora (Erwinia carotovora [1]): No obvious effect
- Preventative activity on the growth of B. cinerea (Botrytis cinerea [2]): No obvious effect
- pH of water after product added [3, 6]: 6.15
- pH of water after product added [3, 7]: 6.34
- pH of water after product added [3, 8]: 6.60 and 6.74
- pH of water after product added [3, 9]: 6.80
- pH of water after product added [3, 10]: 6.85
- pH after active added in unamended tank water [3]: 4.78
- Curative activity on the growth of E. carotovora (Erwinia carotovora [4]; Example 4, pH 7.0): No effect
- Curative activity on the growth of B. cinerea (Botrytis cinerea [5]; Example 4, pH 4.0): No obvious effect
- Curative activity on the growth of B. cinerea (Botrytis cinerea [5]; Example 4, pH 7.0): No effect
- Curative activity on the growth of B. cinerea (Botrytis cinerea [5]; [11]): No obvious effect

- pH of water after product added [3, 6]: 3.75
- pH of water after product added [3, 7]: 5.52
- pH of water after product added [3, 8]: 6.14
- pH after active added in unamended tank water [3]: 4.74
Compound: O=S([O-])S(=O)(=O)[O-].[Na+].[Na+] [Na metabisulphite, sodium metabisulphite]
- Preventative activity on the growth of E. carotovora (Erwinia carotovora [1]): No obvious effect
- Preventative activity on the growth of B. cinerea (Botrytis cinerea [2]): No obvious effect
- Curative activity on the growth of E. carotovora (Erwinia carotovora [4]; Example 4, pH 4.0): No effect
- Curative activity on the growth of E. carotovora (Erwinia carotovora [4]; [11]): No obvious effect
- Curative activity on the growth of B. cinerea (Botrytis cinerea [5]; Example 4, pH 4.0): No effect
- Curative activity on the growth of B. cinerea (Botrytis cinerea [5]; [11]): No obvious effect

Compound: O=S([O-])[O-].[Na+].[Na+] [Na sulphite, sodium sulphite]
- pH of water after product added [3, 8]: 6.78
- pH of water after product added [3, 9]: 6.78
- pH of water after product added [3, 10]: 6.99
- pH after active added in unamended tank water [3]: 5.24
- Curative activity on the growth of B. cinerea (Botrytis cinerea [5]; Example 4, pH 7.0): No effect
